The text below walks through data of paper PMC10671498, “Antiproliferative and Cytotoxic Properties of Propynoyl Betulin Derivatives against Human Ovarian Cancer Cells: In Vitro Studies” (International Journal of Molecular Sciences, 2023).

Data set [1] deals with OVCAR-3 cells. The data set is described as follows: SRB cell proliferation assay, OVCAR-3. The data set is classed as cell-based, human. Conditions: for IC50: Homo sapiens. On the procedure:
OVCAR-3 cells (ATCC No. HTB-161™) were cultured in RPMI-1640 medium containing HEPES buffer (2.383 g/L), sodium bicarbonate (1.5 g/L), sodium pyruvate (0.11 g/L) supplemented with 20% fetal bovine serum, 10 µg/mL bovine insulin, 100 U/mL penicillin, and 100 μg/mL streptomycin (all from Sigma Aldrich).
(§1) Betulin 1 and its derivatives were dissolved in dimethyl sulfoxide (DMSO; Sigma Aldrich) as a 15 mM stock solution. Working solutions were prepared through the dilution of stock solutions with culture medium. The final DMSO concentration in culture media was adjusted to 0.2%. The effect of tested compounds on the proliferation of SK-OV-3 and OVCAR-3 cells was measured using the In Vitro Toxicology Assay Kit, Sulforhodamine B based (Sigma Aldrich). Cells were seeded in 96-well plates (Greiner Bio-One, Kremsmünster, Austria) at an initial density of 3 × 10^3 cells per well in 200 µL of culture medium. After 24 h of incubation, betulin 1 and its derivatives at a concentration range of 0.1 μM to 30 μM were added to the wells. Control cultures were treated with vehicle alone (0.2% DMSO). The incubation periods for cells with test compounds were 1 day, 3 days, and 5 days. After appropriate incubation periods, culture media were removed, and cells were fixed in 10% trichloroacetic acid solution for 60 min at 4 °C. After fixation, the TCA solution was removed, and the plates were washed three times with deionized water (300 μL/well) and dried. At the next step, cells were stained with 0.4% sulforhodamine B for 30 min. The excess dye was removed by washing three times with 1% (vol/vol) acetic acid. The protein-bound dye was dissolved in 200 μL 10 mM Tris base solution. Absorbance was measured at 570 nm and 690 nm (reference wavelength) using the MRX Revelation plate reader (Dynex Technologies, Chantilly, VA, USA).
(§2) GraphPad Prism 10.0.2 (GraphPad Software Inc., San Diego, CA, USA) software was used for calculations and the statistical analysis of the IC50 values (Table 1). IC50 was determined by using the “nonlinear regression” mode, and the “log(inhibitor) vs. normalised response—Variable slope” equation was chosen in GraphPad Prism software for calculations. The obtained data were normalized to run from 100% down to 0%, and logarithms of concentration were used. Graphs (Figure 2, Figure 3, Figure 4, Figure 5 and Figure 8, and Supplementary Figure S1) were also prepared using this software. In the case of the lack of normal distribution or homogeneity of variances, the remaining results were analyzed using a non-parametric Kruskal–Wallis test with multiple comparisons. Post hoc analysis was performed with the non-parametric equivalent of Tukey’s test. A p value of <0.05 was considered statistically significant. Otherwise, a one-way ANOVA followed by a Tukey’s post hoc test was applied. t-tests was used to perform pairwise comparisons between group means. Analysis was performed using Statistica 13.1 software (StatSoft, Tulsa, OK, USA).

Data set [2] relates to A549 cells. Set-up: method as in PMID 30947097. Conditions: cited from earlier work.
Data set [3] deals with MV-4-11 cells. Set-up: method as in PMID 30947097. Conditions: cited from earlier work.
Data set [4] concerns DU145 cells. Also noted: method as in PMID 30947097. Conditions: cited from earlier work.
The test system of data set [5] is SK-OV-3 cells. As to the kind of experiment: SRB cell proliferation assay, SK-OV-3. The data set is classed as cell-based, human. Conditions: for IC50: Homo sapiens. On the procedure: This study used ovarian cancer cell lines, which are part of the panel of cell lines used as part of the NCI-60 Human Cell Lines Screen program, characterized by overexpression of the c-erbB2/neu (HER2) receptor [62, 63]. The human ovarian cancer cell lines (SK-OV-3 and OVCAR-3) were purchased from the American Type Culture Collection (ATCC®, Manassas, Virginia, USA). SK-OV-3 cells (ATCC No. HTB-77™) were cultured in McCoy’s 5A medium containing D-glucose (3 g/L), L-glutamine (0.219 g/L), and sodium bicarbonate (2.2 g/L) supplemented with 10% fetal bovine serum, 10 mM HEPES (pH 7.3–7.5), 100 U/mL penicillin, and 100 μg/mL streptomycin (all from Sigma Aldrich).
as §1, §2

Data set [6] concerns Hs294T cells. Also noted: method as in PMID 30947097. To be noted: cited from earlier work.
The test system of data set [7] is OVCAR-3 cells. The data set is described as follows: LDH release assay, OVCAR-3. It is filed as cell-based, human. Conditions: OVCAR-3, 24 h, all concentrations (3, 10, 30 μM). On the procedure:
(§3) In order to evaluate the cytotoxic effect, the release of LDH into the culture medium using the In Vitro Toxicology Assay Kit, Lactic Dehydrogenase Based (TOX7; Sigma Aldrich) was assessed. SK-OV-3 and OVCAR-3 cells were plated and cultured in 96-well plates (Greiner Bio-One) at the initial density of 5 × 10^3 cells per well in 100 µL of culture medium. The density of the cells was determined in the same manner as in the SRB assay. After 24 h, the media were replaced with the working solutions, which contained appropriate test compounds at concentrations of 3 μM, 10 μM, 30 μM, and control medium (0.2% DMSO). Cells were exposed to the test substances for 24 h. The background control comprised wells without cells with only control medium. To determine the maximal LDH release (high control), half of the control cultures were treated with lysis buffer. Wells with untreated cells were used as the low control of the assay. LDH activity in media was assessed according to the manufacturer’s protocol. The absorbance was measured at wavelengths of 490 nm and 690 nm (background), and the percentage of released enzyme was calculated for cells growing in the presence of compounds according to the formula:Cytotoxicity [%] = [(AT − AL)/(AH − AL)] × 100 where AT is the absorbance of treated wells; AL is low control; and AH is high control (maximal LDH release).
(§4) Cytotoxicity was expressed as a percentage of the released LDH calculated according to the difference between the absorbance of the treated and low control wells divided by the difference between the absorbance of the high control and low control wells.

In data set [8] the test system is 18Co normal myofibroblasts. The data set is described as follows: SRB cell proliferation assay, 18Co normal myofibroblasts. It is filed as cell-based. On the procedure:
Next, 18Co cells (ATCC No. CRL-1459™) were cultured in MEM medium containing HEPES buffer, 10% fetal bovine serum, 100 U/mL penicillin, and 100 μg/mL streptomycin (all from Sigma Aldrich).
as §1, §2

Data set [9] deals with P388 cells. Also noted: method as in PMID 30947097. Conditions: cited from earlier work.
Data set [10] relates to SK-OV-3 cells. As to the kind of experiment: LDH release assay, SK-OV-3. It is filed as cell-based, human. To be noted: SK-OV-3, 24 h, all concentrations (3, 10, 30 μM). The protocol:
as §3, §4

Data set [11] relates to CCRF/CEM cells. Set-up: method as in PMID 30947097. Conditions: cited from earlier work.

On to `C#CC(=O)OC[C@]12CC[C@@H](C(=C)C)C1C1CCC3[C@@]4(C)CC[C@H](OP(=O)(OCC)OCC)C(C)(C)C4CC[C@@]3(C)[C@]1(C)CC2` (stereo partly shown) [Compound 3, 3-O-diethoxyphosphorylbetulin-28-O-propynoylbetulin], for which the half-inhibitory concentration (IC50) in data set [1] (OVCAR-3, 72 h) is 900 nM; in [1] (OVCAR-3, 120 h) it was 490 nM; in [5] (SK-OV-3, 72 h), 290 nM; in [5] (SK-OV-3, 120 h) it was 340 nM; in data set [8] (18Co, 5 days treatment, Neg: negative in the concentration used), “Neg”; in data set [8] (72 h) it was 12400 nM. Moreover, the “concentration at which antiproliferative activity (decrease in the number of cells) was evident” value in [1] (OVCAR-3, SRB assay, 0.1–30 µM) is on record as 1 µM; in data set [5] (SK-OV-3, SRB assay, 0.1–30 µM), 1 µM. Moreover, the tumor growth inhibition result in data set [2], in [3], in data set [4], in data set [6], in [9] and in [11] was “Significant tumor growth inhibition” each time. Moreover, the “cytotoxicity (released LDH)” value in data set [7] is “strongest cytotoxicity”; in data set [10], “strong cytotoxic effect”.
